{
  "source": "paper PMC2612642",
  "about": "(Antiviral research, 2008)",
  "key": {"[1]": {"system": "TC-83 strain of VEEV", "type": "cell-based, Venezuelan equine encephalitis virus"}, "[2]": {"system": "TC-83 strain of VEEV", "type": "cell-based, Venezuelan equine encephalitis virus", "remark": "listed apart in the source"}, "[3]": {"system": "TC-83 strain of VEEV", "type": "cell-based, Venezuelan equine encephalitis virus", "remark": "listed apart in the source"}, "[4]": {"system": "TC-83 VEEV", "experiment": "microbe, parasite or virus in culture", "type": "cell-based, Venezuelan equine encephalitis virus"}, "[5]": {"system": "Vero cells"}, "[6]": {"system": "Vero cells", "remark": "listed apart in the source"}, "[7]": {"system": "TC-83 VEEV", "experiment": "microbe, parasite or virus in culture", "type": "cell-based", "conditions": "Venezuelan equine encephalitis virus, read-out: EC50 (neutral red uptake)"}, "[8]": {"system": "intracellular CTP pools", "type": "cell-based"}, "[9]": {"system": "TC-83 VEEV", "design": "species or system C3H/HeN mice", "conditions": "mouse, in vivo"}, "[10]": {"system": "TC-83 VEEV", "design": "species or system C3H/HeN mice", "conditions": "mouse, in vivo", "remark": "listed apart in the source"}, "[11]": {"system": "TrD VEEV", "design": "species or system ICR mice", "conditions": "mouse, in vivo"}, "[12]": {"conditions": "in vivo, iv; cited from earlier work"}},
  "note": "Read-outs that look alike come from different tables or passages of the source. Marks after values point to notes of the source that are not given here.",
  "data": [
    {"compound": "Interferon alfacon-1", "values": [
      {"measurement": "EC50 (vis)", "setting": "[1]", "value": 0.06, "unit": "µg/mL"},
      {"measurement": "EC50 (NR)", "setting": "[2]", "value": 0.05, "unit": "µg/mL"},
      {"measurement": "EC90", "setting": "[3]", "value": 0.06, "unit": "µg/mL"},
      {"measurement": "EC50 (visual inspection)", "setting": "[4]", "value": 0.06, "unit": "µg/mL"},
      {"measurement": "IC50", "setting": "[5]", "value": ">10", "unit": "µg/mL"},
      {"measurement": "IC50 (neutral red uptake)", "setting": "[5]", "value": ">10", "unit": "µg/mL"},
      {"measurement": "IC50 (visual inspection)", "setting": "[6]", "value": ">10", "unit": "µg/mL"}
    ]},
    {"compound": "Nc1ccn([C@H]2C[C@@H](CO)[C@H](O)[C@@H]2O)c(=O)n1", "note": "(racemic) [(+/-)-carbodine, Carbocyclic cytidine]", "values": [
      {"measurement": "EC50 (vis)", "setting": "[1]", "value": 0.68, "unit": "µg/mL"},
      {"measurement": "EC50 (NR)", "setting": "[2]", "value": 0.70, "unit": "µg/mL"},
      {"measurement": "EC90", "setting": "[3]", "value": 1.7, "unit": "µg/mL"},
      {"measurement": "IC50", "setting": "[5]", "value": ">100", "unit": "µg/mL"}
    ]},
    {"compound": "Nc1ccn([C@@H]2O[C@H](CO)[C@@H](O)[C@H]2O)c(=O)n1", "note": "[Cytidine, cytidine, reference compound]", "values": [
      {"measurement": "EC50", "setting": "[4]; Venezuelan equine encephalitis virus, read-out: EC50 (visual inspection)", "value": "> 100", "unit": "µg/mL"},
      {"measurement": "EC50", "setting": "[7]", "value": "> 100", "unit": "µg/mL"}
    ]},
    {"compound": "Nc1ccn([C@@H]2C[C@H](CO)[C@@H](O)[C@H]2O)c(=O)n1", "note": "[(-)-carbodine]", "values": [
      {"measurement": "EC50 (vis)", "setting": "[1]", "value": "0.3 ± 0.2 ^f μg/ml"},
      {"measurement": "EC50 (NR)", "setting": "[2]", "value": "0.2 ± 0.0", "unit": "µg/mL"},
      {"measurement": "EC90", "setting": "[3]", "value": "0.4 ± 0.2", "unit": "µg/mL"},
      {"measurement": "Cytidine concentration at which activity was completely abolished", "setting": "[4]", "value": "10 to 32", "unit": "µg/mL"},
      {"measurement": "Reduction in intracellular CTP", "setting": "[8]", "value": 65, "unit": "%"},
      {"measurement": "Mortality rate", "setting": "[9]", "value": 50, "unit": "%"},
      {"measurement": "Reduction of brain virus titer vs placebo", "setting": "[10]", "value": 10, "unit": "fold"},
      {"measurement": "Survival", "setting": "[11]", "value": "all animals died"},
      {"measurement": "Mean time to death vs placebo", "setting": "[11]; ip", "value": "slight, but significant, extension"},
      {"measurement": "IC50", "setting": "[5]", "value": ">100", "unit": "µg/mL"},
      {"measurement": "IC50 (neutral red uptake)", "setting": "[5]", "value": ">100", "unit": "µg/mL"},
      {"measurement": "IC50 (visual inspection)", "setting": "[6]", "value": ">100", "unit": "µg/mL"}
    ]},
    {"compound": "Nc1ccn([C@@H]2C=C(CO)[C@@H](O)[C@H]2O)c(=O)n1", "note": "[Cyclopentenyl cytosine]", "values": [
      {"measurement": "Adverse effects in human patients with solid tumors", "setting": "[12]", "value": "hypotension and death"}
    ]},
    {"compound": "Nc1ccn([C@H]2C[C@@H](CO)[C@H](O)[C@@H]2O)c(=O)n1", "note": "[(+)-carbodine]", "values": [
      {"measurement": "EC50 (vis)", "setting": "[1]", "value": ">100", "unit": "µg/mL"},
      {"measurement": "Activity against TC-83 vaccine strain of VEEV", "setting": "[2]", "value": "no activity"},
      {"measurement": "EC50 (NR)", "setting": "[2]", "value": ">100", "unit": "µg/mL"},
      {"measurement": "EC90", "setting": "[3]", "value": ">100", "unit": "µg/mL"},
      {"measurement": "Intracellular CTP reduction", "setting": "[8]", "value": "not reduced"},
      {"measurement": "IC50", "setting": "[5]", "value": ">100", "unit": "µg/mL"}
    ]}
  ]
}
